Source: the supplement of paper PMC10307832

Key:
Experiment in all cases: relative viability (nuclei count vs DMSO), 5 days (fraction); higher = more cells survive
[1] = system: NCI-H647
Summary of the method: (§1)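 Nuclei were stained with Hoechst during a one-step fixation (final 0.05% Triton X-100, 1% formaldehyde, 1 ug/ml Hoechst) carried out 5 days after dosing, then counted on 4× images. The cells, lung cancer lines in 1536-well plates, had been dosed by pin tool the day after seeding with one drug alone or a fixed anchor-drug dose plus five library-drug doses (not always all listed) in √10 steps. Relative viability is the nuclei count in treated wells divided by that in vehicle wells, and each value is the median of duplicate plates.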

[2] = system: COR-L 105
Summary of the method: as §1

[3] = system: NCI-H2087
Summary of the method: as §1

[4] = system: NCI-H520
Summary of the method: as §1

[5] = system: LC-2-ad
Summary of the method: as §1

[6] = system: NCI-H23
Summary of the method: as §1

[7] = system: RERF-LC-KJ
Summary of the method: as §1

[8] = system: HCC-827
Summary of the method: as §1

[9] = system: EPLC-272H
Summary of the method: as §1

[10] = system: NCI-H2347
Summary of the method: as §1

[11] = system: PC-14
Summary of the method: as §1

[12] = system: NCI-H650
Summary of the method: as §1

[13] = system: NCI-H2126
Summary of the method: as §1

[14] = system: NCI-H1915
Summary of the method: as §1

[15] = system: ChaGo-K-1
Summary of the method: as §1

[16] = system: NCI-H2405
Summary of the method: as §1

[17] = system: 201T
Summary of the method: as §1

[18] = system: LCLC-97TM1
Summary of the method: as §1

[19] = system: NCI-H661
Summary of the method: as §1

[20] = system: NCI-H1666
Summary of the method: as §1

[21] = system: H3255
Summary of the method: as §1

O=c1cc(-c2cccc3c2Sc2ccccc2S3)oc(N2CCOCC2)c1 + CCNC(=O)c1noc(-c2cc(C(C)C)c(O)cc2O)c1-c1ccc(CN2CCOCC2)cc1 [Luminespib] (partner 0.01 µM) gave a relative viability ([1]; first compound 0.08 µM) of 0.123, a relative viability ([1]; first compound 0.253 µM) of 0.138 and a relative viability ([1]; first compound 0.8 µM) of 0.259. The relative viability ([1]; first compound 2.53 µM) was 0.183, the relative viability ([1]; first compound 8 µM) was 0.161 and the relative viability ([2]; first compound 0.08 µM) was 0.701. For the same compound, the relative viability ([2]; first compound 0.253 µM) was 0.762, the relative viability ([2]; first compound 0.8 µM) was 0.705 and the relative viability ([2]; first compound 2.53 µM) was 0.671. The relative viability ([2]; first compound 8 µM) was 1.02, the relative viability ([3]; first compound 0.08 µM) was 0.2 and the relative viability ([3]; first compound 0.253 µM) was 0.163. It also gave a relative viability ([3]; first compound 0.8 µM) of 0.155, a relative viability ([3]; first compound 2.53 µM) of 0.163 and a relative viability ([3]; first compound 8 µM) of 0.2. It also gave a relative viability ([4]; first compound 0.08 µM) of 0.223, a relative viability ([4]; first compound 0.253 µM) of 0.231 and a relative viability ([4]; first compound 0.8 µM) of 0.215. For the same compound, the relative viability ([4]; first compound 2.53 µM) was 0.205, the relative viability ([4]; first compound 8 µM) was 0.231 and the relative viability ([5]; first compound 0.08 µM) was 0.979. The relative viability ([5]; first compound 0.253 µM) was 1.12, the relative viability ([5]; first compound 0.8 µM) was 1.13 and the relative viability ([5]; first compound 2.53 µM) was 0.955. The relative viability ([5]; first compound 8 µM) was 0.965, the relative viability ([6]; first compound 0.08 µM) was 0.195 and the relative viability ([6]; first compound 0.253 µM) was 0.228. For the same compound, the relative viability ([6]; first compound 0.8 µM) was 0.188, the relative viability ([6]; first compound 2.53 µM) was 0.219 and the relative viability ([6]; first compound 8 µM) was 0.209. The relative viability ([7]; first compound 0.08 µM) was 1.06, the relative viability ([7]; first compound 0.253 µM) was 1.56 and the relative viability ([7]; first compound 0.8 µM) was 1.24. The relative viability ([7]; first compound 2.53 µM) was 1.35, the relative viability ([7]; first compound 8 µM) was 1.42 and the relative viability ([8]; first compound 0.08 µM) was 0.582. For the same compound, the relative viability ([8]; first compound 0.253 µM) was 0.588, the relative viability ([8]; first compound 0.8 µM) was 0.656 and the relative viability ([8]; first compound 2.53 µM) was 0.588. The relative viability ([8]; first compound 8 µM) was 0.639, the relative viability ([9]; first compound 0.08 µM) was 0.182 and the relative viability ([9]; first compound 0.253 µM) was 0.405. For the same compound, the relative viability ([9]; first compound 0.8 µM) was 0.431, the relative viability ([9]; first compound 2.53 µM) was 0.146 and the relative viability ([9]; first compound 8 µM) was 0.292. The relative viability ([10]; first compound 0.08 µM) was 0.529, the relative viability ([10]; first compound 0.253 µM) was 0.358 and the relative viability ([10]; first compound 0.8 µM) was 0.284. It also gave a relative viability ([10]; first compound 2.53 µM) of 0.461, a relative viability ([10]; first compound 8 µM) of 0.391 and a relative viability ([11]; first compound 0.08 µM) of 0.155. For the same compound, the relative viability ([11]; first compound 0.253 µM) was 0.15, the relative viability ([11]; first compound 0.8 µM) was 0.165 and the relative viability ([11]; first compound 2.53 µM) was 0.168. It also gave a relative viability ([11]; first compound 8 µM) of 0.155, a relative viability ([12]; first compound 0.08 µM) of 0.711 and a relative viability ([12]; first compound 0.253 µM) of 0.756. The relative viability ([12]; first compound 0.8 µM) was 0.873, the relative viability ([12]; first compound 8 µM) was 0.813 and the relative viability ([13]; first compound 0.08 µM) was 0.791. It also gave a relative viability ([13]; first compound 0.253 µM) of 1, a relative viability ([13]; first compound 0.8 µM) of 0.963 and a relative viability ([13]; first compound 2.53 µM) of 0.822. For the same compound, the relative viability ([13]; first compound 8 µM) was 0.836, the relative viability ([14]; first compound 0.08 µM) was 0.968 and the relative viability ([14]; first compound 0.253 µM) was 0.827. For the same compound, the relative viability ([14]; first compound 0.8 µM) was 0.911, the relative viability ([14]; first compound 2.53 µM) was 0.775 and the relative viability ([14]; first compound 8 µM) was 0.769. For the same compound, the relative viability ([15]; first compound 0.08 µM) was 0.533, the relative viability ([15]; first compound 0.253 µM) was 0.763 and the relative viability ([15]; first compound 0.8 µM) was 0.658. The relative viability ([15]; first compound 2.53 µM) was 0.67, the relative viability ([15]; first compound 8 µM) was 0.548 and the relative viability ([16]; first compound 0.08 µM) was 0.522. It also gave a relative viability ([16]; first compound 0.253 µM) of 0.565, a relative viability ([16]; first compound 0.8 µM) of 0.464 and a relative viability ([16]; first compound 2.53 µM) of 0.568. For the same compound, the relative viability ([16]; first compound 8 µM) was 0.465, the relative viability ([17]; first compound 0.08 µM) was 1.02 and the relative viability ([17]; first compound 0.253 µM) was 1.05. It also gave a relative viability ([17]; first compound 0.8 µM) of 1.16, a relative viability ([17]; first compound 2.53 µM) of 0.99 and a relative viability ([17]; first compound 8 µM) of 0.969. For the same compound, the relative viability ([18]; first compound 0.08 µM) was 0.815, the relative viability ([18]; first compound 0.253 µM) was 0.733 and the relative viability ([18]; first compound 0.8 µM) was 0.807. The relative viability ([18]; first compound 2.53 µM) was 0.71, the relative viability ([18]; first compound 8 µM) was 0.708 and the relative viability ([19]; first compound 0.08 µM) was 0.914. It also gave a relative viability ([19]; first compound 0.253 µM) of 0.939, a relative viability ([19]; first compound 0.8 µM) of 0.893 and a relative viability ([19]; first compound 2.53 µM) of 0.897. For the same compound, the relative viability ([19]; first compound 8 µM) was 0.891, the relative viability ([20]; first compound 0.08 µM) was 1.01 and the relative viability ([20]; first compound 0.253 µM) was 1.09. The relative viability ([20]; first compound 0.8 µM) was 1.01, the relative viability ([20]; first compound 2.53 µM) was 1.06 and the relative viability ([20]; first compound 8 µM) was 1.17. The relative viability ([21]; first compound 0.08 µM) was 0.758, the relative viability ([21]; first compound 0.253 µM) was 0.943 and the relative viability ([21]; first compound 0.8 µM) was 0.84. The relative viability ([21]; first compound 2.53 µM) was 0.884 and the relative viability ([21]; first compound 8 µM) was 0.955.
